Reference: PMC6151589, “Identification of Optically Active Pyrimidine Derivatives as Selective 5-HT2C Modulators” (Molecules : A Journal of Synthetic Chemistry and Natural …, 2017)
Like-named read-outs stand apart in the source and are kept apart here.

Tests used:
Assay type in all cases: binding
5-HT2C [1] = target: T1, 5-HT2C (Homo sapiens, UniProt P28335); test: [3H]mesulergine displacement, membranes
T1 construct: gene HTR2C; human recombinant receptor; crude membrane fractions of transfected cells (CHO-K1; HEK293 or CHO)
T1 sequence (P28335 33-458): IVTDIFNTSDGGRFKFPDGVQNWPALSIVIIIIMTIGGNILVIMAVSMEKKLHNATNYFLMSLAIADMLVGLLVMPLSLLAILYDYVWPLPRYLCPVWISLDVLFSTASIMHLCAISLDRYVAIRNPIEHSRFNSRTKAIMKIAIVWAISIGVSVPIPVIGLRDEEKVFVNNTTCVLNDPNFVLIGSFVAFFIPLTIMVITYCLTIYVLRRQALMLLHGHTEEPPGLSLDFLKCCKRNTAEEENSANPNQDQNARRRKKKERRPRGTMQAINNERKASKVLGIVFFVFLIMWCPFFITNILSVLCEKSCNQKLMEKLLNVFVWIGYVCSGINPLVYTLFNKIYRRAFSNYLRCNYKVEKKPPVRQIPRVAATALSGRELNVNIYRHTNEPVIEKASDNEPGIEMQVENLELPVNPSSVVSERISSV
Excerpt: [3H]mesulergine displacement, membranes on 5-HT2C

5-HT2A = target: T2, 5-HT2A (Homo sapiens, UniProt P28223); test: radioligand displacement, membranes
T2 construct: gene HTR2A; human recombinant receptor; crude membrane fractions of transfected HEK293 or CHO cells
Excerpt: radioligand displacement, membranes on 5-HT2A

5-HT2B = target: T3, 5-HT2B (Homo sapiens, UniProt P41595); test: radioligand displacement, membranes
T3 construct: gene HTR2B; human recombinant receptor; crude membrane fractions of transfected HEK293 or CHO cells
Excerpt: radioligand displacement, membranes on 5-HT2B

5-HT2C [2] = target: T1, 5-HT2C; test: [3H]mesulergine displacement, membranes; details: read-out: 5-HT2B / Ki

T2 sequence (P28223 whole entry): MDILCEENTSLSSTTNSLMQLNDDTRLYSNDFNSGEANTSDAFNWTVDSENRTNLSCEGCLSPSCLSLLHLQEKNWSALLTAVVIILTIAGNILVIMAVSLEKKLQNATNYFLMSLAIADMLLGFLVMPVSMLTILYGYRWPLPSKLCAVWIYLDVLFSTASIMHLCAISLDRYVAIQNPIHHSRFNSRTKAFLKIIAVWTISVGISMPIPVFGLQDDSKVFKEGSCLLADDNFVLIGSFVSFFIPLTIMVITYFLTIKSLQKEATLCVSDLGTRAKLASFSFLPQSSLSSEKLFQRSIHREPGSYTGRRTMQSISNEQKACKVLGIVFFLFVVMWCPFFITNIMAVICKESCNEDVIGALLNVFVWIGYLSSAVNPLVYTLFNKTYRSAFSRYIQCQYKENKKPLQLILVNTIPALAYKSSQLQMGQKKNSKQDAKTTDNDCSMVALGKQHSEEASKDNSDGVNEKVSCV
T3 sequence (P41595 whole entry): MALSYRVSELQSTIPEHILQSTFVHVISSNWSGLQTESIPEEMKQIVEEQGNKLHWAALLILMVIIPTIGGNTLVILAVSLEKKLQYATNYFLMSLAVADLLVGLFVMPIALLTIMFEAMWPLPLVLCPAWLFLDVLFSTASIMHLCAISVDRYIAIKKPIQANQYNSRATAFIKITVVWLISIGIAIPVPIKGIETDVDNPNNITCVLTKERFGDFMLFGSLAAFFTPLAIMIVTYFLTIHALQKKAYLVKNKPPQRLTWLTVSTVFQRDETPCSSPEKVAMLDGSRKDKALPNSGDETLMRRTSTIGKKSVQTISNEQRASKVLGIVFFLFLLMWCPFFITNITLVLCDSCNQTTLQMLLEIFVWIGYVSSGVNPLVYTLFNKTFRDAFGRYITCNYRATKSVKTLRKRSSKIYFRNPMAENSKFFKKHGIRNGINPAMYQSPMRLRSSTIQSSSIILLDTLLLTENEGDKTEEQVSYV

Compound	Ki (5-HT2C [1])	Ki (5-HT2A)	Ki (5-HT2B)	Ki (5-HT2C [2])
C[C@@H]1CNCCN1c1ncc(F)c(OCc2cccc(F)c2)n1 [4b, (R)-5-Fluoro-4-((3-fluorobenzyl)oxy)-2-(2-methylpiperazin-1-yl)pyrimidine]	5.1 nM	43 nM	14 nM	–
CC(Oc1nc(N2CCNC[C@H]2C)ncc1F)c1cccc(F)c1 (mixture of isomers) [4d, 5-Fluoro-4-(1-(3-fluorophenyl)ethoxy)-2-((R)-2-methylpiperazin-1-yl)pyrimidine]	2.7 nM	213 nM	4.8 nM	–
CC(Oc1nc(N2CCNC[C@H]2C)ncc1F)c1ccc(F)cc1 (mixture of isomers) [4e, 5-Fluoro-4-(1-(4-fluorophenyl)ethoxy)-2-((R)-2-methylpiperazin-1-yl)pyrimidine]	4.5 nM	426 nM	10 nM	–
C[C@@H]1CNCCN1c1ncc(F)c(OCc2ccc(F)cc2)n1 [4c, (R)-5-Fluoro-4-((4-fluorobenzyl)oxy)-2-(2-methylpiperazin-1-yl)pyrimidine]	22 nM	51 nM	14 nM	–
CC(CCc1ccc(F)cc1)Oc1nc(N2CCNC[C@H]2C)ncc1F (mixture of isomers) [4i, 5-Fluoro-4-((4-(4-fluorophenyl)butan-2-yl)oxy)-2-((R)-2-methylpiperazin-1-yl)pyrimidine]	12 nM	173 nM	22 nM	–
C[C@@H]1CNCCN1c1ncc(F)c(OCCCc2cccc(F)c2)n1 [4f, (R)-5-Fluoro-4-(3-(3-fluorophenyl)propoxy)-2-(2-methylpiperazin-1-yl)pyrimidine]	20 nM	138 nM	24 nM	–
C[C@@H]1CNCCN1c1ncc(F)c(OCc2ccccc2F)n1 [4a, (R)-5-Fluoro-4-((2-fluorobenzyl)oxy)-2-(2-methylpiperazin-1-yl)pyrimidine]	31 nM	80 nM	56 nM	–
CC(CCc1cccc(F)c1)Oc1nc(N2CCNC[C@H]2C)ncc1F (mixture of isomers) [4h, 5-Fluoro-4-((4-(3-fluorophenyl)butan-2-yl)oxy)-2-((R)-2-methylpiperazin-1-l)pyrimidine]	14 nM	170 nM	16 nM	–
C[C@@H]1CNCCN1c1ncc(F)c(OCCCc2ccc(F)cc2)n1 [4g, (R)-5-Fluoro-4-(3-(4-fluorophenyl)propoxy)-2-(2-methylpiperazin-1-yl)pyrimidine]	–	90 nM	22 nM	22 nM
